The values that follow come from PMC10212518 (Biochemical Journal, 2023).

For experiment [1], the system named is wild-type MDF cells. Put plainly: FACS cell death assay (PI uptake by flow cytometry) after necroptotic stimulus. The experiment is classed as cell-based, mouse. The conditions noted are these: for inhibition of TSQ-induced necroptosis (PI uptake, flow cytometry): TSQ 24 h, control comparison at concentrations >1 µM; for inhibition of TSZ-induced necroptosis (PI uptake, flow cytometry): TSZ 24 h. The protocol:
In the first protocol, WT MDF cells were seeded at 1.0 × 10^5 cells per well in 24-well plates and allowed to settle for 4 h at 37°C 10% CO2. […] After 24 h, cells were harvested, stained with 1 µg/ml propidium iodide (PI; Sigma–Aldrich) and PI positive cells were quantified by flow cytometry on a BD FACSCalibur instrument. In the second protocol, WT MDF cells were seeded at 5.0 × 10^4 cells in 500 µl per well in 24-well plates (Falcon, cat #353047) and allowed to settle for 24 h at 37°C 10% CO2. […] For all compounds and reagents, 0.5 µl of 1000× stocks were used. Cells were harvested, stained with 2 µg/ml propidium iodide (PI; Sigma–Aldrich) and PI positive cells were quantified by flow cytometry on a BD FACSCalibur instrument.
(A flow cytometer gives signals particle by particle.)

Experiment [2] deals with T1, endogenous mouse RIPK3 in MDF cells (Mus musculus, UniProt Q9QZL0).
T1 construct: endogenous in cells; host or cells: wild-type mouse dermal fibroblasts (MDF)
Put plainly: Cellular Thermal Shift Assay (CETSA). The experiment is classed as binding. As to conditions: 20 µM. On the procedure: (§1) CETSA was performed as previously described. Briefly, Mlkl^−/− MDF cells were treated with doxycycline (20 ng/ml) for 4 h to induce expression of the MLKL Q343A mutant and then seeded to obtain 1.5 × 10^6 cells per temperature point. WT MDF or U937 cells were seeded to obtain 1.5 × 10^6 cells per temperature point. Cells were treated with DMSO or compounds (20 µM), as specified, for 1 h at 37°C 10% CO2. Cells were spun down, washed with 5 ml DPBS (Gibco), resuspended in DPBS containing cOmplete EDTA-free Protease Inhibitor Cocktail (Roche) and aliquoted into 100 µl samples per temperature point in PCR tubes. Live cell suspensions were heated across a temperature gradient (below) for 3 min in a T100 Thermal Cycler (Bio-Rad), cooled at room temperature for 3 min, snap frozen in liquid N2 and stored at −80°C overnight.
(§2) Samples were freeze-thawed once to lyse the cells. Soluble protein was separated from precipitated protein via centrifugation at 17 000×g for 30 min at 4°C. Soluble protein fractions were resolved by SDS–PAGE and analysed by Western blot. Briefly, 10 µl of each soluble protein sample was added to 10 µl of NuPAGE LDS Sample Buffer (Invitrogen) containing TCEP (Sigma–Aldrich). Samples were heated at 95°C for 10 min and then 15 µl of each sample was run on a gel along with the Precision Plus Kaleidoscope Prestained Protein Standard (Bio-Rad), using either NuPAGE 4–12% Bis-Tris 1.0 mm × 20-well Midi Gels (Invitrogen) with NuPAGE MES SDS Running Buffer (Invitrogen), or 4–15% Criterion TGX Stain-Free 26 well 15 µl Protein Gels (Bio-Rad) with Tris/Glycine Buffer (Bio-Rad). Western blots were performed according to the Western Blotting General Procedure above.

For experiment [3], the system named is RIPK3 phosphorylation in MDF cells. Description: Cellular phosphorylation assay, Western blot of phospho-RIPK3. The experiment is classed as cell-based, mouse. The conditions noted are these: 10 µM, 2 h pre-treatment; TSI 2 h; wild-type MDF cells. On the procedure:
(§3) WT, Ripk1^−/−Mlkl^−/− and Ripk3^−/− MDF cell lines were seeded at 3.0 × 10^5 cells in 1 ml per well in 12-well plates (Corning, cat #3512) and allowed to settle for 24 h at 37°C 10% CO2. WT cells were treated with DMSO alone or compounds (1 µM or 10 µM), as specified, for 2 h. Ripk1^−/−Mlkl^−/− and Ripk3^−/− cells were left untreated. Cells were stimulated with TSI to induce phosphorylation of RIPK1 and RIPK3, or left unstimulated, for 2 h. For all compounds and reagents, 1 µl of 1000× stocks were used. Cells were harvested, washed with 500 µl DPBS (Gibco) and lysed in 25 µl of ice-cold RIPA buffer (25 mM Tris–HCl pH 7.5, 150 mM NaCl, 1% v/v Nonidet P-40, 1% w/v Na Deoxycholate, 0.1% w/v SDS) containing cOmplete EDTA-free Protease Inhibitor Cocktail (Roche), PhosSTOP Phosphatase Inhibitor Cocktail (Roche) and benzonase nuclease (Sigma–Aldrich) for 30 min on ice. Whole cell lysates were stored at −80°C until protein quantification, SDS–PAGE and Western blots were performed. Briefly, whole cell lysates were thawed on ice then quantified using the BCA Protein Assay with bicinchoninic acid solution (Sigma–Aldrich) and copper sulfate solution (Sigma–Aldrich). NuPAGE LDS Sample Buffer (Invitrogen) containing TCEP (Sigma–Aldrich) was added to the whole cell lysates to obtain 20 µg protein in 20 µl total volume per sample. Samples were heated at 95°C for 10 minutes and 20 µl of each sample was run on NuPAGE 4–12% Bis-Tris 1.0 mm × 12-well Mini Gels (Invitrogen) using NuPAGE MES SDS Running Buffer (Invitrogen) along with the Precision Plus Kaleidoscope Prestained Protein Standard (Bio-Rad). Western blots were performed according to the Western Blotting General Procedure above.
In general terms: In western blotting, separated proteins are transferred to a membrane and probed.

The target in experiment [4] is T2, endogenous mouse RIPK1 in MDF cells (Mus musculus, UniProt Q60855).
T2 construct: endogenous in cells; host or cells: wild-type mouse dermal fibroblasts (MDF)
T2 sequence (Q60855 1-656): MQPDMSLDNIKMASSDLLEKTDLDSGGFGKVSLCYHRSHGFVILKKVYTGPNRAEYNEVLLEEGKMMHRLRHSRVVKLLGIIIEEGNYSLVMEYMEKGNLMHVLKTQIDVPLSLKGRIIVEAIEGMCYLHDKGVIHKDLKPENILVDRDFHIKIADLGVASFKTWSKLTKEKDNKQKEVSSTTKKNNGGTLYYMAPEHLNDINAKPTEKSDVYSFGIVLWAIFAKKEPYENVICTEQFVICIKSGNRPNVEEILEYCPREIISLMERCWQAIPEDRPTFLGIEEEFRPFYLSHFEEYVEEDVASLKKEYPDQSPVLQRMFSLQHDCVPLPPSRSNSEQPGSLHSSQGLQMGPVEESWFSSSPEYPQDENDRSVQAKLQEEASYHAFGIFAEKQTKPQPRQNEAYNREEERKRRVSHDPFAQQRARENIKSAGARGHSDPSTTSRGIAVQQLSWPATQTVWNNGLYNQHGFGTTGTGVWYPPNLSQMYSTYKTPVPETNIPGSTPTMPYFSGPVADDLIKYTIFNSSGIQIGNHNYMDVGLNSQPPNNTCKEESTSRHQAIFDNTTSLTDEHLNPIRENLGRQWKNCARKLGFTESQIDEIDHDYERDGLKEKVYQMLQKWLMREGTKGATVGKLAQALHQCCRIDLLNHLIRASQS
Put plainly: Cellular Thermal Shift Assay (CETSA). The conditions noted are these: 20 µM. The experiment is classed as binding. On the procedure: as §1, §2

Experiment [5] deals with RIPK1 phosphorylation in MDF cells. Description: Cellular phosphorylation assay, Western blot of phospho-RIPK1. The experiment is classed as cell-based, mouse. The conditions noted are these: 10 µM, 2 h pre-treatment; TSI 2 h; wild-type MDF cells. On the procedure:
as §3

T1 sequence (Q9QZL0 whole entry): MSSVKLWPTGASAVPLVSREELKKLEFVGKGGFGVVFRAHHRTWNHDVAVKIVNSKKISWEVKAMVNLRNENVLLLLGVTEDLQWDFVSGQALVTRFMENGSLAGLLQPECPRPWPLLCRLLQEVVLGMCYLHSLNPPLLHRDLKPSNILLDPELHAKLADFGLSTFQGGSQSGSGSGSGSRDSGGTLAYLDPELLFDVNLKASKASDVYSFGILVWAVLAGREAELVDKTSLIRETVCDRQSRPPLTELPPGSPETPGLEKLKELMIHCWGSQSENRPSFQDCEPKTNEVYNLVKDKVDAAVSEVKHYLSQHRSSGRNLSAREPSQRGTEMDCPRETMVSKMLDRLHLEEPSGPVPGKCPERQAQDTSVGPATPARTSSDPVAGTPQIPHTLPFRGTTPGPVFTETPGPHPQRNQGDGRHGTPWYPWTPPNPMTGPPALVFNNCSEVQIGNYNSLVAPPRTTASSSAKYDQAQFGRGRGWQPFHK

Regarding `Cc1cc(-c2cnc(N)c3c(-c4ccc5scnc5c4)csc23)n(C)n1` [GSK′843], in experiment [1], the “inhibition of TSQ-induced necroptosis (PI uptake, flow cytometry)” value is reported as “protection was comparable” and the “inhibition of TSZ-induced necroptosis (PI uptake, flow cytometry)” value is recorded as “more potent protection with the control inhibitors compared with ABT-869”.

As to `CC(C)S(=O)(=O)c1ccc2nccc(Nc3ccc4scnc4c3)c2c1` [GSK′872], in experiment [1], the “inhibition of TSQ-induced necroptosis (PI uptake, flow cytometry)” value is listed as “protection was comparable” and the “inhibition of TSZ-induced necroptosis (PI uptake, flow cytometry)” value is given as “more potent protection with the control inhibitors compared with ABT-869”. In addition, the “effect on thermal stability of endogenous mouse RIPK3 (CETSA)” value in experiment [2] is “had no effect on RIPK3 stability”. Also, in experiment [3], the “effect on RIPK3 phosphorylation (phospho-RIPK3 signal, Western blot)” value was “almost completely inhibited”.

On to `CN1C(=O)NC(Cc2c[nH]c3c(Cl)cccc23)C1=O` (centres unmarked) [Nec-1s], for which, in experiment [4], the “effect on thermal stability of endogenous mouse RIPK1 (CETSA)” value is given as “increased the thermal stability”. In addition, the “effect on RIPK1 phosphorylation (phospho-RIPK1 signal, Western blot)” value in experiment [5] was “almost completely ablated RIPK1 phosphorylation”.
